Eight compounds from patent publication US20230355759A1, “POPULATIONS OF NATURAL KILLER CELLS COMPRISING A CLEAVAGE RESISTANT CD16” (CELULARITY INC., priority 2019, published 2023) can be followed below.

In one data set the test system is CD34 cells. Put plainly: CD34 cell expansion at Day 14 of the culture. As to conditions: compound at 10 μM. The format is cell-based, human. As to the method: (§1) For biological testing, the compounds were provided to culture to evaluate their effects on NK cell expansion and differentiation. Specifically, donors of CD34^+ cells (StemCell Technology) were thawed and expanded in vitro following NK culture protocol. During the first 14 days of the culture, each CRL compounds was dissolved in DMSO and added to the culture at 10 μM concentration. SR1 (at 10 μM) served as a positive control compound, while DMSO alone without any compound served as a negative control. At the end of the culture on Day 35, cell expansion, natural killer (NK) cell differentiation and cytotoxicity of the cells against K562 tumor cell line were characterized. Due to the large number of the compounds, the testing was performed in two experiments, CRL1-11 and CRL 12-22. The same donors were used for each experiment. Positive and negative controls were also included in both experiments.

Data set [1] has as its system CD34+ cells. Put plainly: NK cell expansion in three-stage NK culture with compound. The format is cell-based, human. As to conditions: for expansion, differentiation and cytotoxicity profiles compared to SR1: PNK-007 culture; for support of NK (PNK-007) expansion: compound at 10 μM during the first 14 days, 35-day culture; for NK cell expansion compared to SR1: compound and SR1 at 10 μM, Day 35.
Description: (§2) UCB CD34+ cells were cultivated in presence of cytokines including thrombopoietin, SCF, Flt3 ligand, IL-7, IL-15 and IL-2 for 35 days to produce three-stage NK cells, as described in Example 1. Multi-color flow cytometry was used to determine the phenotypic characteristics of three-stage NK cells.
as §1

The test system of another data set is K562 tumor cells. Put plainly: Cytotoxicity assay of compound cultured cells against K562. To be noted: K562, 10:1 effector to target ratio. The format is cell-based. As to the method:
as §1
Cytotoxicity assay was run using compound cultured cells against K562 tumor cells at 10:1 effector to target ratio (FIG. 5) to evaluate cell functions.

Data set [2] concerns CD34+ cells. Briefly: NK cell differentiation of compound cultured cells (flow cytometry). It is filed as cell-based, human. As to conditions: PNK-007 culture.
Description: as §2, §1

`N#Cc1cncc(-c2nc(NCCc3c[nH]c4ccccc34)c3occc3n2)c1` [CRL22, 5-(4-((2-(1H-indol-3-yl)ethyl)amino)furo[3,2-d]pyrimidin-2-yl)nicotinonitrile]: the CD34 cell expansion entry in the data set on CD34 cells is given as “highest CD34 cell expansion”. Also, in the data set with CD34+ cells [1], the “expansion, differentiation and cytotoxicity profiles compared to SR1” value is “very similar expansion, differentiation and cytotoxicity profiles as SR1”; the “support of NK (PNK-007) expansion” value is “supported cell expansion the best”.

Regarding `Cc1cncc(-c2nc(NCCc3c[nH]c4ccccc34)c3occc3n2)c1` [CRL20, N-(2-(1H-indol-3-yl)ethyl)-2-(5-methylpyridin-3-yl)furo[3,2-d]pyrimidin-4-amine], the CD34 cell expansion entry in the data set on CD34 cells is given as “highest CD34 cell expansion”. In addition, in the data set with CD34+ cells [1], the “expansion, differentiation and cytotoxicity profiles compared to SR1” value is “very similar expansion, differentiation and cytotoxicity profiles as SR1”; the “support of NK (PNK-007) expansion” value was “supported cell expansion the best”.

As to `Fc1cncc(-c2nc(NCCc3c[nH]c4ccccc34)c3occc3n2)c1` [CRL19, N-(2-(1H-indol-3-yl)ethyl)-2-(5-fluoropyridin-3-yl)furo[3,2-d]pyrimidin-4-amine], the CD34 cell expansion result in the data set on CD34 cells is on record as “highest CD34 cell expansion”. For the same compound, in the data set with CD34+ cells [1], the “expansion, differentiation and cytotoxicity profiles compared to SR1” value was “very similar expansion, differentiation and cytotoxicity profiles as SR1”; the “support of NK (PNK-007) expansion” value is given as “supported cell expansion the best”.

On to `CC(C)c1csc2c(NCCc3c[nH]c4ccccc34)nc(-c3cncc(C#N)c3)nc12` [CRL17, 5-(4-((2-(1H-indol-3-yl)ethyl)amino)-7-isopropylthieno[3,2-d]pyrimidin-2-yl)nicotinonitrile], for which the “killing activities compared to cells cultured with SR1” value with K562 tumor cells is “increased killing activities of the cells”. Besides, the “CD56+/CD11a+ subpopulation compared to SR1” value in the data set on CD34+ cells [2] is recorded as “increased CD56+/CD11a+ subpopulation”. Moreover, in the data set with CD34+ cells [1], the “NK cell expansion compared to SR1” value is “slightly less expansion compared to SR1”.

Turning to `CCC(C)Nc1cc(-c2cncc(C#N)c2)nc(NCCc2c[nH]c3ccccc23)n1` (centres unmarked) [CRL7, 5-(2-((2-(1H-indol-3-yl)ethyl)amino)-6-(sec-butylamino)pyrimidin-4-yl)nicotinonitrile], the “support of NK (PNK-007) expansion” value with CD34+ cells [1] is “all the compounds except CRL7 and CRL13 supported PNK-007 expansion and differentiation”.

Take `CCC(C)Nc1nc(NCCc2c[nH]c3ccccc23)c2ccccc2n1` (centres unmarked) [CRL13, N^4-(2-(1H-indol-3-yl)ethyl)-N^2-(sec-butyl)quinazoline-2,4-diamine]: in the data set with CD34+ cells [1], the “support of NK (PNK-007) expansion” value was “all the compounds except CRL7 and CRL13 supported PNK-007 expansion and differentiation”.

As for `CC(C)c1csc2c(NCCc3c[nH]c4ccccc34)nc(-c3cncc(F)c3)nc12` [CRL18, N-(2-(1H-indol-3-yl)ethyl)-2-(5-fluoropyridin-3-yl)-7-isopropylthieno[3,2-d]pyrimidin-4-amine], the “killing activities compared to cells cultured with SR1” value in the data set with K562 tumor cells was “increased killing activities of the cells”. In addition, the “CD56+/CD11a+ subpopulation compared to SR1” value in the data set with CD34+ cells [2] was “increased CD56+/CD11a+ subpopulation”. In the data set on CD34+ cells [1], the “NK cell expansion compared to SR1” value is recorded as “slightly less expansion compared to SR1”.

`Cc1cncc(-c2nc(NCCc3c[nH]c4ccccc34)c3scc(C(C)C)c3n2)c1` [CRL21, N-(2-(1H-indol-3-yl)ethyl)-7-isopropyl-2-(5-methylpyridin-3-yl)thieno[3,2-d]pyrimidin-4-amine]: the “killing activities compared to cells cultured with SR1” value in the data set on K562 tumor cells is “increased killing activities of the cells”. The “CD56+/CD11a+ subpopulation compared to SR1” value with CD34+ cells [2] was “increased CD56+/CD11a+ subpopulation”. Further, the “NK cell expansion compared to SR1” value in the data set on CD34+ cells [1] is recorded as “slightly less expansion compared to SR1”.
